Experimental findings from US11298344B2, “Composition for inhibiting sodium leak channel (NALCN), comprising n-benzhydryl quinuclidine derivatives” (Research & Business Foundation Sungkyunkwan University, priority 2018, dated 2022) are described below.

Holding throughout (assay type): cell-based
Assay [1] has as its target T1, NALCN (Rattus norvegicus, UniProt Q6Q760).
T1 construct: expressed in transfected cells; host or cells: HEK293T
Nature of the assay: Patch-clamp of HEK293T cells transfected with M3R and NALCN, CCh-induced inward current. As to conditions: for compound concentration which decreases half of a NALCN current (rank order): CCh-induced current; for inhibitory effect on a CCh-induced NALCN current: FIG. 6; for activation of NALCN by CCh in the presence of the compound: compound present before CCh. The procedure: (§1) HEK293T cells were cultured in a DMEM ([…]) medium containing 10% FBS and 1% antibiotics using an incubator having a condition of 37° C. and 5% CO2. NALCN and TRPC cDNAs were respectively constructed using a vector that expresses GFP under an independent promoter. Lipofectamine 2000, which is used as a transfection reagent, was mixed with each plasmid and the cells were treated with the mixture. Then, after 48 hours, expression was identified. In order to identify whether normal transfection with each plasmid occurred, only the cells in which GFP was expressed were selected.
(§2) The HEK293T cells were transfected with combinations of M3R and NALCN, M3R and GFP, and M3R and TRPCs.
Among the transfected HEK293T cells acquired in Experimental Method 2, cells expressing GFP were selected, and a patch pipette formed of a thin glass tube was inserted into a membrane surface. After setting −80 mV as a holding potential, a current was measured. Under the holding potential, treatment with carbachol (CCh) which is an activator of M3R was performed to identify a current induced by NALCN. An extracellular solution was treated with 50 μM of L703606, and change of current caused by CCh was identified. In addition, based on voltage-independent characteristics of NALCN, currents obtained by varying the voltage from −80 mV to +10 mV were measured, and change of current caused by the treatment with L703606 was recorded. All data were presented as mean±standard deviation calculated after treatment with an inhibitor relative to a control (** P<0.01).
HEK293T cells are non-neuronal cells commonly used for transfection of genes. Based on the report that a NALCN channel is activated by M3R in pancreatic beta cells MIN6 and HEK293 cells, M3R and NALCN plasmids that had been cloned from rat brain were co-transfected into HEK293T cells to identify whether L703606 inhibits a NALCN current activated by M3R.

For assay [2], the target named is T2, NALCN (Mus musculus, UniProt Q8BXR5).
T2 construct: from tissue; host or cells: acutely isolated dopaminergic neurons of mouse substantia nigra pars compacta (TH-GFP mice)
The assay is described as follows: Patch-clamp of isolated midbrain dopaminergic neurons (background and NT-induced currents, membrane voltage). The procedure:
In order to obtain midbrain dopaminergic neurons from mice, substantia nigra pars compacta within mouse midbrain in which GFP was expressed due to tyrosine hydroxylase (TH) promoter was cut into sections. In order to isolate tissue, the sections were subjected to treatment with a highly-concentrated glucose solution at 36.5° C. which contains papain (4 U ml-1) for 20 minutes or longer. The enzymatically-treated sections of substantia nigra pars compacta were washed with a highly-concentrated glucose solution, and then slowly agitated using Pasteur pipettes with various size holes so that the respective dopaminergic neurons were isolated. All animal experiments were conducted under approval of the Institutional Animal Care and Use Committee (IACUC) of Sungkyunkwan University School of Medicine.
Among the dopaminergic neurons isolated in Experimental Method 1, dopaminergic neurons expressing GFP were selected, and a patch pipette formed of thin glass tube was inserted into a membrane surface. After setting −60 mV as a holding potential, a current was measured. A background current was identified under the holding voltage. After treatment with NT, a current was identified. Then, additionally, an extracellular solution was treated with 10 μM of L703606, and change of current was identified. In addition, the above procedure was repeated by replacing sodium ion with N-methyl-D-glucamine (NMDG). After treating the extracellular solution with 0.5 μM of tetrodotoxin (TTX) and 30 μM of ZD7288 which are a voltage-gated sodium channel inhibitor and an HCN channel inhibitor, respectively, a voltage was measured. Additionally, change of voltage at the time of treatment with 10 μM of L703606 was identified. All data were presented as mean±standard deviation calculated at the time of treatment with the inhibitors and replacement of sodium ion, relative to a control. (* P<0.05, ** P<0.01, *** P<0.001).
In addition, it was possible to identify that at the time of replacing sodium with NMDG, the background current was close to 0 pA, and an inward current was not induced by the treatment with NT. From this, it can be seen that the background current is generated by sodium ions.

The test system of assay [3] is transient receptor potential canonical (TRPC) 3, 4, 5, 6, or 7 channel. Nature of the assay: Patch-clamp of HEK293T cells transfected with M3R and a TRPC channel, CCh-induced inward current. Conditions: holding potential −60 mV, second CCh stimulus, Na+ and K+ removed, cesium added. The procedure:
as §1, §2
From the above, it was possible to identify NALCN inhibitory effects of the NBQN derivatives. Furthermore, in the present example, it was intended to identify whether the NBQN derivatives have specific and exclusive inhibitory activity against NALCN. […]
A general note: The patch-clamp technique gives a direct electrical read-out from membranes.

Setting [4] is: holding potential −60 mV, 10 μM of L703606.
[5] abbreviates: holding potential −60 mV, 20 μM of PP1.

The structures appear in SMILES notation.

T1 sequence (Q6Q760 whole entry): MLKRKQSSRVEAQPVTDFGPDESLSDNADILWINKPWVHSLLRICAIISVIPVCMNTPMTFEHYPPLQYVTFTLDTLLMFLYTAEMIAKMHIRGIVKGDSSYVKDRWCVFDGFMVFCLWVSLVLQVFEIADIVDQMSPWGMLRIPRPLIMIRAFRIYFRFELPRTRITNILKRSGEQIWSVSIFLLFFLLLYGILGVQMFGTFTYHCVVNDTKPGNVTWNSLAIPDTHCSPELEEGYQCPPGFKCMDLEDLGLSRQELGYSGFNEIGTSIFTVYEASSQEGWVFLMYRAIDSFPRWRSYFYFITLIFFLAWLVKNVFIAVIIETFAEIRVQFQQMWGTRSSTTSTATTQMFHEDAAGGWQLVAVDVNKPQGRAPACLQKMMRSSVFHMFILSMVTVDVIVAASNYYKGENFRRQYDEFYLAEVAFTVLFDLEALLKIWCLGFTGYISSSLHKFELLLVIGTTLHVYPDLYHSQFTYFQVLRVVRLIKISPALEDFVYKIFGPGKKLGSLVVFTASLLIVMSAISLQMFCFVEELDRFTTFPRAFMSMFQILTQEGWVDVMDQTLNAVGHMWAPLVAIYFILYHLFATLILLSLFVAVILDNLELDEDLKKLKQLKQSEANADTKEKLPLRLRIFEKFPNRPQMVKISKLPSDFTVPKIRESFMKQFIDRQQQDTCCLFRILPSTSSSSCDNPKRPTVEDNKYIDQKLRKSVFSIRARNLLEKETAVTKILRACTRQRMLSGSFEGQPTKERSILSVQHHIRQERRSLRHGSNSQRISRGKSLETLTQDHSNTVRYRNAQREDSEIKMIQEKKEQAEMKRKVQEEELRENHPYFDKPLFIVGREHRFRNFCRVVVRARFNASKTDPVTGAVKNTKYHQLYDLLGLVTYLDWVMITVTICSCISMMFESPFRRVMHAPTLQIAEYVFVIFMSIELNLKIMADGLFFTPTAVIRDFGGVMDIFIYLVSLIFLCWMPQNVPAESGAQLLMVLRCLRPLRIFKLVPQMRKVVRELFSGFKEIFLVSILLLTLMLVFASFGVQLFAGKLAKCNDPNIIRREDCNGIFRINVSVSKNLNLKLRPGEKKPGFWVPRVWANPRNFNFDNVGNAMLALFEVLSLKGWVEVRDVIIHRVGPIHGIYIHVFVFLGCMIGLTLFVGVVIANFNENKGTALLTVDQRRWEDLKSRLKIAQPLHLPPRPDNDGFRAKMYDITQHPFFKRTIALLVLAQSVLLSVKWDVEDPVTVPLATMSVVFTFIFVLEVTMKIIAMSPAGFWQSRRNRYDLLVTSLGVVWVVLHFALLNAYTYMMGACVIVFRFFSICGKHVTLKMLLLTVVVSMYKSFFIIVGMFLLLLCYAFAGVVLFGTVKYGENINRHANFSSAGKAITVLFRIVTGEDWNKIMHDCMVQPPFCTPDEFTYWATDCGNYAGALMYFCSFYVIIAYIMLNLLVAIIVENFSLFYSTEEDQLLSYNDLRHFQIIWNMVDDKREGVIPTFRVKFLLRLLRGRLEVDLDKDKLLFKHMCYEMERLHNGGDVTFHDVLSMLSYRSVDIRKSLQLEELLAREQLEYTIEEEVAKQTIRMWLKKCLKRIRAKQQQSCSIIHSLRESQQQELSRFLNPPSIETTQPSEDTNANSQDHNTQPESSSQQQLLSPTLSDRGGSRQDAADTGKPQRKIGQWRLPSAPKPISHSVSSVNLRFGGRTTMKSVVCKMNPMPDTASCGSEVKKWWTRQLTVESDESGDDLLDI

For the compound `COc1ccccc1CNC1C2CCN(CC2)C1C(c1ccccc1)c1ccccc1` (centres unmarked) [CP96345, 2-(Diphenylmethyl)-N-(2-methoxybenzyl)quinuclidin-3-amine], at NALCN [1] (M3R-NALCN HEK293T cells), the “compound concentration which decreases half of a NALCN current (rank order)” value is “next highest inhibitory effects” and the “inhibitory effect on a CCh-induced NALCN current” value (“inhibitory effect” below) is “inhibit a CCh-induced NALCN current in a similar fashion”.
For the compound `COc1ccccc1CN[C@H]1CCCN[C@H]1c1ccccc1` [CP99994, (2S,3S)-N-[(2-methoxyphenyl)methyl]-2-phenylpiperidin-3-amine], on NALCN [1] (M3R-NALCN HEK293T cells), the “inhibitory effect” value is “insignificant inhibitory effect”.
Broadly, the inhibition is the relative decrease from the control value, in per cent. Take `Ic1ccccc1CNC1C2CCN(CC2)C1C(c1ccccc1)c1ccccc1` (centres unmarked) [L703606, 2-(Diphenylmethyl)-N-(2-iodobenzyl)quinuclidin-3-amine]: the spontaneous activity voltage entry at NALCN [2] (10 μM of L703606) was “completely inhibited”. On NALCN [2] (setting [4]), the background current result is listed as “decreased” and the “inward current induced by NT” value is listed as “not induced”. Besides, the membrane potential entry on NALCN [2] (spontaneous activity stopped by 0.5 μM TTX and 30 μM ZD7288, 10 μM of L703606) is listed as “induced hyperpolarization of membrane potential”. Besides, the inhibition at 50 µM on NALCN [1] (HEK-293T, cells that co-express M3R-NALCN, holding potential −80 mV, 50 μM of L703606) is at least 90%. Besides, at NALCN [1] (M3R-NALCN HEK293T cells), the “CCh-induced inward current in the presence of PP1, after treatment with L703606” value is recorded as “returning to the background current again immediately”; the “compound concentration which decreases half of a NALCN current (rank order)” value is “highest inhibitory effect”; the “inhibitory effect” value is recorded as “inhibit a CCh-induced NALCN current in a similar fashion”; the “activation of NALCN by CCh in the presence of the compound” value is “not possible to observe activation of NALCN”. The “CCh-induced NALCN current where voltage is changed” value at NALCN [1] (voltage from −80 mV to +10 mV) is “decreased to a control level”.
Take `COc1ccc(C(C)(C)C)cc1CN[C@H]1C2CCN(CC2)[C@H]1C(c1ccccc1)c1ccccc1` [Maropitant, (2S,3S)-2-(Diphenylmethyl)-N-[2-methoxy-5-(2-methyl-2-propanyl)benzyl]quinuclidin-3-amine]: at NALCN [1] (M3R-NALCN HEK293T cells), the “compound concentration which decreases half of a NALCN current (rank order)” value is on record as “next highest inhibitory effects” and the “inhibitory effect” value is listed as “inhibit a CCh-induced NALCN current in a similar fashion”.
Turning to `Cc1ccc(-c2nn(C(C)(C)C)c3ncnc(N)c23)cc1` [PP1], on NALCN [2] (setting [5]), the background current result is “little effect on the background current” and the “inward current induced by NT stimulus” value is listed as “remarkably decreased”. Further, the “activation of NALCN by CCh in the presence of the compound” value at NALCN [1] (M3R-NALCN HEK293T cells) was “strong inward current induced by activation of NALCN”. At NALCN [1] (cells that co-express M3R-NALCN, treatment with PP1), the “inhibition of the CCh-induced inward current” value is listed as “did not greatly inhibit”.
Regarding `COc1ccc(CCCOC(Cn2ccnc2)c2ccc(OC)cc2)cc1` (centres unmarked) [SKF96365], the “CCh-induced inward current (TRPC current activated by M3R)” value in assay [3] was “not created at all”.
